Among the data in the Deep4Chem optical property database are photoluminescence quantum yield values, retold here.

Several values for one entry are separate records, joined by “and”; a condition that tells them apart may be missing. Equal values may be shown once.

This series in a line: photoluminescence quantum yield (fraction); solvent given as SMILES.

For `COc1ccc(C2=C(c3ccc(-c4ccccc4)cc3)C(c3ccccc3)=[N+]3C2=Nc2c(-c4ccc(OC)cc4)c(-c4ccc(-c5ccccc5)cc4)c(-c4ccccc4)n2[B-]3(F)F)cc1`, the photoluminescence quantum yield (in Cc1ccccc1) amounted to 0.01.

In the case of `c1ccc2c(c1)-c1sc3ccccc3c1C21c2ccccc2-c2sc3ccccc3c21`, under “in ClCCl”, the photoluminescence quantum yield came to 0.06.

As to `CC(C)(C)c1ccc(C2=Cc3cc4c(cc3P2(=O)c2ccccc2)C=C(c2ccc(C(C)(C)C)cc2)P4(=O)c2ccccc2)cc1` (stereo unspecified), the photoluminescence quantum yield (in C1CCOC1) worked out at 0.44. For `C=CC12N=N[C@](C=C)(C3C4CCC(C4)C31)C1[C@@H]3CC[C@@H](C3)[C@H]12` (stereo partly specified), the photoluminescence quantum yield (in CC#N) was 0.16.

Under “in C1CCOC1”, `FC(F)(F)C(F)(F)C(F)(F)c1nc2c(-c3ccsc3)cc3c4cc(-c5ccsc5)c5nc(C(F)(F)C(F)(F)C(F)(F)F)nc6c(-c7ccsc7)cc(c7cc(-c8ccsc8)c(n1)c2c37)c4c56` registered a photoluminescence quantum yield of 0.62. On to `O=S(=O)(c1cccc(N2c3ccccc3Sc3ccccc32)c1)c1cccc(N2c3ccccc3Sc3ccccc32)c1`, for which the photoluminescence quantum yield worked out at 0.082 (in CCCCC(CC)n1c2ccc(-n3c4ccccc4c4ccccc43)cc2c2cc(-n3c4ccccc4c4ccccc43)ccc21) and 0.116 (in c1cc(-n2c3ccccc3c3ccccc32)cc(-n2c3ccccc3c3ccccc32)c1). For `N#Cc1cccc(-c2nc(-c3ccccc3)c(-c3ccccc3)[nH]2)c1`, the photoluminescence quantum yield (in CO) was found to be 0.2.

The molecule `CB1C=Cc2ccc3ccccc3c2N1` displayed a photoluminescence quantum yield (in C1CCCCC1) of 0.7.

In the case of `CCCCCCCCCCCCCCCCCCOC(=O)/C=C/C1=CC2=C(c3c(C)cc(C)cc3C)c3cc(/C=C/C(=O)OCCCCCCCCCCCCCCCCCC)cn3[B-](F)(F)[N+]2=C1`, for the setting “in ClCCl”, the photoluminescence quantum yield amounted to 0.34. The molecule `COc1ccc2c(c1)c1cc(OC)ccc1n2-c1nc2ccccc2nc1-n1c2ccc(OC)cc2c2cc(OC)ccc21` gave a photoluminescence quantum yield (in Cc1ccccc1) of 0.13.

In turn, `COc1ccc(N(c2ccc(OC)cc2)c2ccc3c(c2)C2(c4cc(N(c5ccc(OC)cc5)c5ccc(OC)cc5)ccc4C=C3)c3ccccc3-c3ccccc32)cc1` displayed a photoluminescence quantum yield (in ClCCl) of 0.9. `Cc1cc(-c2ccc(-c3ccccc3)cc2)cc(C)[o+]1` registered a photoluminescence quantum yield (in ClCCl) of 0.78.

Turning to `CC(=O)N(Cc1ccccn1)c1c2ccccc2c2c3c(cccc13)C(=O)N(Cc1ccccn1)C2=O`, the photoluminescence quantum yield runs as follows: (in C1CCOC1) 0.36; (in CCCCCC) 0.59; (in CCO) 0.35; (in Cc1ccccc1) 0.52; (in ClCCl) 0.48. For the molecule `CCCCCCN1C(=O)c2cccc3c(-c4ccc(-c5cc(-c6ccc(C)cc6)n(-c6ccccc6)n5)s4)ccc(c23)C1=O`, the photoluminescence quantum yield (in ClCCl) came out at 0.36. Molecule `CN(C)c1ccc2nc(-c3ccc(C(=O)O)cc3)sc2c1` showed a photoluminescence quantum yield (in C1CCCCC1) of 0.89; a photoluminescence quantum yield (in CC#N) of 0.86; a photoluminescence quantum yield (in CC(C)O) of 0.96; a photoluminescence quantum yield (in CO) of 0.84; a photoluminescence quantum yield (in CS(C)=O) of 0.98; a photoluminescence quantum yield (in ClC(Cl)Cl) of 0.96. Further, the photoluminescence quantum yield (in c1ccccc1) was found to be 0.85. Turning to `COc1cc(-c2cc(N3CCCCC3)c(C#N)c3c2-c2cccc4cccc-3c24)cc(OC)c1OC`, where the note is “in O”, the photoluminescence quantum yield was 0.28.

As for `Nc1ccc2c(c1)C(=O)NC2=O`, the photoluminescence quantum yield is 0.7 and 1 (in C1CCOC1); 0.73 (in C1COCCO1); 0.63 (in CC#N); 0.68 (in CC(C)=O); 0.21 (in CCO); 0.91 (in CN(C)C=O). The molecule further gave a photoluminescence quantum yield (in ClCCl) of 0.76. Under “in ClCCl”, `CN(C)c1cc(-c2ccccc2)cc2ccccc12` registered a photoluminescence quantum yield of 0.52.

As to `COc1ccc(-c2cnc(C#Cc3ccccc3)o2)cc1OC`, the photoluminescence quantum yield (in ClCCl) is 0.49. Take `COc1ccc(/C=C2\OC(=O)c3cc(N)ccc32)cc1`: the photoluminescence quantum yield is, setting by setting: (in CC#N) 0.38; (in CC(C)=O) 0.21; (in CC(C)CO) 0.44; (in CC(C)O) 0.4; (in CCCO) 0.46; (in CCO) 0.34. In addition, the photoluminescence quantum yield is, setting by setting: (in CCOC(C)=O) 0.2; (in CCOCC) 0.11; (in CO) 0.29. `[NH3+]C(Cc1ccc(O)cc1)C(=O)[O-]` (stereo unspecified) displayed a photoluminescence quantum yield (in O) of 0.13. As to `C(=C\c1ccc(-c2ccc(/C=C/c3ccc(-n4c5ccccc5c5ccccc54)cc3)s2)s1)/c1ccc(-n2c3ccccc3c3ccccc32)cc1`, the photoluminescence quantum yield by setting is: (in C1CCOC1) 0.1; (in CC#N) 0.09; (in CC(C)=O) 0.09; (in CN(C)C=O) 0.11; (in Cc1ccccc1) 0.11. Consider `CCCCN1c2ccccc2B(c2ccccc2C(F)(F)F)c2ccccc21`, for which the photoluminescence quantum yield (in ClCCl) was found to be 0.9.

With `CCOC(=O)C1=C(C(=O)OCC)C2(c3ccccc3-c3ccccc32)[C@@H](c2ccc([N+](=O)[O-])cc2)C=C2c3cc(OC)c(OC)cc3CCN21`, where the note is “in ClCCl”, the photoluminescence quantum yield came to 0.00075. Turning to `F[B-]1(F)n2c(ccc2-c2cccs2)C(C(F)(F)F)=C2C=CC(c3cccs3)=[N+]21`, the photoluminescence quantum yield (in CCCCCC) came to 1. `CCCCCCCCCCCCOc1cc2c3c(ccc4c5c(N6CCOCC6)cc6c7c(ccc(c1c34)c75)C(=O)N(C1CCCCC1)C6=O)C(=O)N(C1CCCCC1)C2=O` showed a photoluminescence quantum yield (in ClC(Cl)Cl) of 0.067. Under “in ClCCl”, `CCCCc1ccc2c(c1)c1ccc3cccc4c3c1c1c2c2cccc3ccc5c6cc(CCCC)ccc6c4c1c5c32` yielded a photoluminescence quantum yield of 0.31. On to `Cn1c(=O)c(/N=N/c2ccc(Nc3ccccc3)c(S(=O)(=O)O)c2)c(O)c2ccccc21`, for which the photoluminescence quantum yield (in CS(C)=O) came to 0.04. With `c1ccc2c(c1)c1ccccc1n2-c1ccc2cc(-c3ccc(-c4ccc(-c5cc6ccc(-n7c8ccccc8c8ccccc87)cc6o5)cc4)cc3)oc2c1`, the photoluminescence quantum yield was 0.96 (in Cc1ccccc1) and 1 (in c1ccc2c(c1)c1ccccc1n2-c1ccc(-c2ccc(-n3c4ccccc4c4ccccc43)cc2)cc1). Under “in ClC(Cl)Cl”, `CCN(CC)c1ccc2cc(-c3cn4cc(OC)ccc4n3)c(=O)oc2c1` returned a photoluminescence quantum yield of 0.9.

Regarding `COc1ccc(C2=CC(c3ccc(OC)cc3)=[O+][B-](C(C)=O)(C(C)=O)O2)cc1`, the photoluminescence quantum yield by setting is: (in CC#N) 0.7; (in ClC(Cl)(Cl)Cl) 1. Molecule `CCn1c2ccccc2oc2c(C#N)c3oc4ccccc4oc3c(C#N)c21` yielded a photoluminescence quantum yield (in ClC(Cl)Cl) of 0.34. In turn, `CC(C)(C)c1ccc2oc3nc4oc5ccc(N(c6ccccc6)c6ccccc6)cc5c4cc3c2c1` registered a photoluminescence quantum yield (in ClC(Cl)Cl) of 0.083. Turning to `CC1=C(c2ccccc2)C2=Cc3c(-c4ccccc4)c(C)c(C)n3[B-](F)(F)[N+]2=C1C`, the photoluminescence quantum yield (in CC#N) was determined as 0.93. Consider `COc1ccc(/C=C/C=C/C2=NC3C(=O)NC(N)=NC3N2[C@H]2C[C@H](O)[C@@H](CO)O2)cc1` (stereo partly specified), for which the photoluminescence quantum yield by setting is: (in C1COCCO1) 0.71; (in CC#N) 0.68; (in CO) 0.56. Regarding `CC1(C)c2ccccc2N(c2cc[n+]3c(c2)-c2ccccc2O[B-]3(F)F)c2ccccc21`, the photoluminescence quantum yield (in O=P(c1ccccc1)(c1ccccc1)c1ccccc1Oc1ccccc1P(=O)(c1ccccc1)c1ccccc1) was determined as 0.65. Turning to `COc1ccc(-n2nc(C(=O)c3ccc(Cl)cc3)c(N3CCCC3)n2)cc1`, the photoluminescence quantum yield (in CC#N) is 0.004.

For `O=c1c2cc(F)ccc2nc2n1[B-](F)(F)[n+]1ccccc1-2`, the photoluminescence quantum yield (in CC#N) amounted to 0.86 and the photoluminescence quantum yield (in ClCCl) worked out at 0.99. Take `CCn1c2sccc2c2c3nsnc3c3c4ccsc4n(CC)c3c21`: the photoluminescence quantum yield turned out to be 0.51 (in C1CCOC1); 0.47 (in CCOC(C)=O); 0.43 (in CN(C)C=O); 0.45 (in Cc1ccccc1); 0.34 (in ClCCl).

On to `CC(=O)c1ccc(NC(=O)c2ccc(N(C)C)cc2)cc1`, for which the photoluminescence quantum yield by setting is: (in C1CCCCC1) 0.0006; (in C1CCOC1) 0.0158; (in CC#N) 0.0017; (in CCOCC) 0.001.

In the case of `CCCCOc1ccc(-c2cc3c(o2)c(-c2ccc(OCCCC)cc2)c2n3[B-](F)(F)[N+]3=Cc4c(-c5ccc(OCCCC)cc5)c5oc(-c6ccc(OCCCC)cc6)cc5n4[B-](F)(F)[N+]3=C2)cc1`, the photoluminescence quantum yield (in C1CCOC1) was found to be 0.44; the photoluminescence quantum yield (in CN(C)C=O) turned out to be 0.32; the photoluminescence quantum yield (in CS(C)=O) was 0.3; the photoluminescence quantum yield (in Cc1ccccc1) is 0.37; the photoluminescence quantum yield (in ClC(Cl)Cl) was found to be 0.41; the photoluminescence quantum yield (in ClCCl) stood at 0.4. Molecule `COc1ccc2cc(-c3cc(-c4ccccc4)c4n3[B-](F)(F)[N+]3=C5C=NC=CN5[B-](F)(F)[N+]3=C4)ccc2c1` gave a photoluminescence quantum yield (in ClCCl) of 0.43.

In turn, `N#Cc1nc(N(Cc2ccccc2Cl)Cc2ccccc2Cl)c(C#N)nc1N(Cc1ccccc1Cl)Cc1ccccc1Cl` had a photoluminescence quantum yield (in ClC(Cl)Cl) of 0.78.

`FC(F)(F)c1ccc(-c2nc(-c3ccc(C(F)(F)F)cc3)n3ccccc23)cc1`: the photoluminescence quantum yield (in ClC(Cl)Cl) was 0.16. `COc1ccc(-c2oc3cccc4c5c(-c6ccc(OC)c(OC)c6)/c(=N/S(=O)(=O)C(F)(F)F)oc6cccc(c2c34)c65)cc1OC` had a photoluminescence quantum yield (in ClC(Cl)Cl) of 0.1. In the case of `O=Cc1nc2ccc(C#Cc3ccc(N(c4ccccc4)c4ccccc4)cc3)cc2s1`, the photoluminescence quantum yield (in Cc1ccccc1) is 0.57. `[O-]c1ccccc1-c1[nH+]c2c3ccccc3c3ccccc3c2n1-c1ccccc1`: under “in Cc1ccccc1”, the photoluminescence quantum yield was found to be 0.191. Under “in ClCCl”, `C[Si]1(C)c2cc(-c3ccccc3)ccc2C=Cc2ccc(-c3ccccc3)cc21` came in with a photoluminescence quantum yield of 0.9. In turn, `CCCCCCCCC1(CCCCCCCC)c2ccccc2-c2ccc(-c3nnc(-c4ccc(-n5c6ccc(C(C)(C)C)cc6c6cc(C(C)(C)C)ccc65)cc4)o3)cc21` had a photoluminescence quantum yield (in Cc1ccccc1) of 0.88. As for `CCCCOC(=O)c1cc(Cl)c2c3c(Cl)cc4c5c(cc(Cl)c(c6c(Oc7ccc(OC)cc7)cc(C(=O)OCCCC)c1c26)c53)C(=O)N(c1c(C(C)C)cccc1C(C)C)C4=O`, the photoluminescence quantum yield (in Cc1ccccc1) worked out at 0.12.
